Assay results published in US20120302740A1, “VINCRISTINE IMMUNOASSAY” (SALADAX BIOMEDICAL INC., priority 2010, published 2012).
Counter-ions that a name gives are not always drawn.

Assays:
[1] = system: polyclonal antibodies to vincristine, bleed G2M5; assay: Indirect competitive microtiter plate immunoassay (ELISA), polyclonal antiserum bleed G2M5; assay type: binding, mouse; details: relative to vincristine, vincristine [5]-BSA coated plates
Description: (§1) The ELISA method for measuring vincristine concentrations was performed in polystyrene microtiter plates (Nunc MaxiSorp F8 Immunomodules) optimized for protein binding and containing 96 wells per plate. Each well was coated with vincristine [5]-BSA conjugate (prepared as in Example 5) by adding 300 μl, of vincristine [5]-BSA conjugate at 10 μg/mL in 0.05M sodium carbonate, pH 9.6, and incubating for three hours at room temperature. The wells were washed with 0.05M sodium carbonate, pH 9.6 and then were blocked with 375 μL of 5% sucrose, 0.2% sodium caseinate solution for 30 minutes at room temperature. After removal of the blocking solution the plates were dried at 37° C. overnight.
(§2) This procedure is to find the dilution of antibody or anti-serum to be tested for displacement as in Example 9. […] Following the incubation for color development, 50 μL of stop solution (1.5% sodium fluoride in diH2O) was added to each well to stop the color development and after 10 seconds of shaking the absorbance was determined at 650 nm (Molecular Devices Plate Reader). The amount of antibody in a well was proportional to the absorbance measured and was expressed as the dilution (titer) resulting in an absorbance of 1.5. Titers were determined by graphing antibody dilution of the antibody measured (x-axis) vs. absorbance 650 nm (y-axis) and interpolating the titer at an absorbance of 1.5. […]

[2] = system: polyclonal antibodies to vincristine, bleed G1M1; assay: Indirect competitive microtiter plate immunoassay (ELISA), polyclonal antiserum bleed G1M1; assay type: binding, mouse; details: relative to vincristine, vincristine [5]-BSA coated plates
Description: as §1, §2

[3] = system: monoclonal antibody to vincristine 8B6.23.23; assay: Indirect competitive microtiter plate immunoassay (ELISA), monoclonal antibody 8B6.23.23; assay type: binding, mouse; details: relative to vincristine, vincristine [5]-BSA coated plates
Description: as §1
(§3) This procedure is to find the dilution of antibody or anti-serum to be tested for displacement as in Example 9. The ELISA method for screening vincristine antibodies (produced in Example 6) was performed with the microtiter plates that were sensitized with vincristine-BSA conjugate prepared in Example 7. The antibody screening assay was performed by diluting the murine serum from test bleeds (as in Example 6a) containing polyclonal vincristine antibodies to 1:2,000, 1:6,000, 1:18,000 and 1:54,000 (volume/volume) in phosphate buffered saline containing 0.1% BSA and 0.01% thimerosal. […] (volume/volume) in phosphate buffered saline containing 0.1% BSA and 0.01% thimerosal. To each well of vincristine-BSA sensitized wells (prepared in Example 7)50 μL phosphate buffered saline containing 0.1% BSA and 0.01% thimerosal and 50 μL of diluted antibody were added and incubated for 10 minutes at room temperature with shaking. During this incubation antibody binds to the vincristine-BSA conjugate passively absorbed in the wells (Example 7). The wells of the plates were washed three times with 0.02 M TRIS, 0.9% NaCl, 0.5% Tween-80 and 0.001% thimerosal, pH 7.8 to remove any unbound antibody. […] Following the incubation for color development, 50 μL of stop solution (1.5% sodium fluoride in diH2O) was added to each well to stop the color development and after 10 seconds of shaking the absorbance was determined at 650 nm (Molecular Devices Plate Reader). The amount of antibody in a well was proportional to the absorbance measured and was expressed as the dilution (titer) resulting in an absorbance of 1.5. Titers were determined by graphing antibody dilution of the antibody measured (x-axis) vs. absorbance 650 nm (y-axis) and interpolating the titer at an absorbance of 1.5. The titer which produced absorbance of 1.5 determined the concentration (dilution) of antibody used in the indirect competitive microtiter plate assay described in Example 9. […]

[4] = system: polyclonal antibodies to vincristine, bleed G1M3; assay: Indirect competitive microtiter plate immunoassay (ELISA), polyclonal antiserum bleed G1M3; assay type: binding, mouse; details: relative to vincristine, vincristine [5]-BSA coated plates
Description: as §1, §2

[5] = system: polyclonal antibodies to vincristine, bleed G2M1; assay: Indirect competitive microtiter plate immunoassay (ELISA), polyclonal antiserum bleed G2M1; assay type: binding, mouse; details: relative to vincristine, vincristine [5]-BSA coated plates
Description: as §1, §2

[6] = system: monoclonal antibody to vincristine 1D12.10; assay: Indirect competitive microtiter plate immunoassay (ELISA), monoclonal antibody 1D12.10; assay type: binding, mouse; details: relative to vincristine, vincristine [5]-BSA coated plates
Description: as §1, §3

[7] = system: antibodies to vincristine; assay: Indirect competitive microtiter plate immunoassay (ELISA), pool of antibodies to vincristine; assay type: binding, mouse; details: for reactivity of the antibodies of this invention (in words): summary of Tables I and II
Description: as §1
This procedure is to find the dilution of antibody or anti-serum to be tested for displacement as in Example 9. The ELISA method for screening vincristine antibodies (produced in Example 6) was performed with the microtiter plates that were sensitized with vincristine-BSA conjugate prepared in Example 7. The antibody screening assay was performed by diluting the murine serum from test bleeds (as in Example 6a) containing polyclonal vincristine antibodies to 1:2,000, 1:6,000, 1:18,000 and 1:54,000 (volume/volume) in phosphate buffered saline containing 0.1% BSA and 0.01% thimerosal. […] (volume/volume) in phosphate buffered saline containing 0.1% BSA and 0.01% thimerosal. To each well of vincristine-BSA sensitized wells (prepared in Example 7)50 μL phosphate buffered saline containing 0.1% BSA and 0.01% thimerosal and 50 μL of diluted antibody were added and incubated for 10 minutes at room temperature with shaking. During this incubation antibody binds to the vincristine-BSA conjugate passively absorbed in the wells (Example 7). The wells of the plates were washed three times with 0.02 M TRIS, 0.9% NaCl, 0.5% Tween-80 and 0.001% thimerosal, pH 7.8 to remove any unbound antibody. […] After an incubation of 10 minutes at room temperature with shaking, during which the goat anti-mouse antibody-HRP enzyme conjugate binds to vincristine antibodies in the wells, the plates were again washed three times to remove unbound goat anti-mouse antibody-HRP enzyme conjugate. To develop a measurable color in the wells washing was followed by the addition of 100 μL of TMB (TMB Substrate, BioFx), the substrate for HRP, to develop color during a 10 minute incubation with shaking at room temperature. Following the incubation for color development, 50 μL of stop solution (1.5% sodium fluoride in diH2O) was added to each well to stop the color development and after 10 seconds of shaking the absorbance was determined at 650 nm (Molecular Devices Plate Reader). The amount of antibody in a well was proportional to the absorbance measured and was expressed as the dilution (titer) resulting in an absorbance of 1.5. Titers were determined by graphing antibody dilution of the antibody measured (x-axis) vs. absorbance 650 nm (y-axis) and interpolating the titer at an absorbance of 1.5. The titer which produced absorbance of 1.5 determined the concentration (dilution) of antibody used in the indirect competitive microtiter plate assay described in Example 9.
Indirect Competitive Microtiter Plate Immunoassay Procedure Determining IC50 and Cross-Reactivity for Antibodies to Vincristine
The ELISA method for determining IC50 values and cross-reactivity was performed with the microtiter plates that were sensitized with vincristine [5]-BSA conjugates as described in Example 7. […]

[8] = system: polyclonal antibodies to vincristine, bleed G1M4; assay: Indirect competitive microtiter plate immunoassay (ELISA), polyclonal antiserum bleed G1M4; assay type: binding, mouse; details: relative to vincristine, vincristine [5]-BSA coated plates
Description: as §1, §2

[9] = cited from earlier work
[10] = single one minute intravenous injection of 1-2 mg per m^2 body surface area

| Compound | Cross-reactivity of competitive immunoassay [1] [%] | Cross-reactivity of competitive immunoassay [2] [%] | Cross-reactivity of competitive immunoassay [3] [%] | Cross-reactivity of competitive immunoassay [4] [%] | Cross-reactivity of competitive immunoassay [5] [%] | Cross-reactivity of competitive immunoassay [6] [%] | percent cross-reactivities relative to vincristine ([7]; measured with this pool of antibodies) | reactivity of the antibodies of this invention (in words) [7] | Cross-reactivity of competitive immunoassay [8] [%] | elimination half-life [9, 10] [h] | time to distribution into tissue [9, 10] [min] | difference in total dose exposure (inter-/intra-patient variability) ([9]; Crom et al., 1994) | interpatient variability in clearance ([9]; Gidding et al., 1999, Groninger et al., 2002) |
| --- | --- | --- | --- | --- | --- | --- | --- | --- | --- | --- | --- | --- | --- |
| CC[C@]1(O)C[C@@H]2CN(CCc3c([nH]c4ccccc34)[C@@](C(=O)OC)(c3cc4c(cc3OC)N(C)[C@H]3[C@@](O)(C(=O)OC)[C@H](OC(C)=O)[C@]5(CC)C=CCN6CC[C@]43[C@@H]65)C2)C1 [Vinblastine, vinblastine] | <2 | <0.9 | 0.3 | <3.9 | <3.4 | <0.1 | less than 5% | substantially non-cross-reactive | <4.1 | – | – | – | – |
| CC[C@]1(O)C[C@H]2CN(CCc3c([nH]c4ccccc34)[C@@](C(=O)OC)(c3cc4c(cc3OC)N(C=O)[C@H]3[C@@](O)(C(=O)OC)[C@H](OC(C)=O)[C@]5(CC)C=CCN6CC[C@]43[C@@H]65)C2)C1 [Vincristine sulfate] | – | – | – | – | – | – | – | – | – | 19 to 155 | ≤ 10 | – | – |
| [H][C@@]12C[N@@](CCc3c([nH]c4ccccc34)[C@@](C(=O)OC)(c3cc4c(cc3OC)N(C=O)[C@]3([H])[C@]45CC[N@@]4CC=C[C@@](CC)([C@@H](OC(C)=O)[C@]3(O)C(=O)OC)[C@]45[H])C1)C[C@](O)(CC)C2 [Vincristine, vincristine] | 100 | 100 | 100 | 100 | 100 | 100 | – | substantially selectively reactive | 100 | – | – | up to 40 fold | up to 25 fold |
| CCC1=C[C@@H]2CN(C1)Cc1c([nH]c3ccccc13)[C@@](C(=O)OC)(c1cc3c(cc1OC)N(C)[C@H]1[C@@](O)(C(=O)OC)[C@H](OC(C)=O)[C@]4(CC)C=CCN5CC[C@]31[C@@H]54)C2 [Vinorelbine, vinorelbine] | – | – | 0.7 | – | – | <0.1 | – | substantially non-cross-reactive | – | – | – | – | – |
| vindesine | – | – | <0.1 | – | – | <0.1 | – | substantially non-cross-reactive | – | – | – | – | – |
